From patent publication US20240174684A1, “INHIBITORS OF cGAS ACTIVITY AS THERAPEUTIC AGENTS” (BELLBROOK LABS, LLC, priority 2021, published 2024) come the findings set out here.

What is called solubility (kinetic) is the concentration staying in solution when a stock, usually in DMSO, is diluted into the medium. Broadly, the IC50 is the concentration that gives 50% inhibition. A high value points to weaker potency. The term bioavailability denotes dose-corrected exposure relative to a reference, in per cent. Higher therefore signals much systemic uptake. In general, AUC(0-inf) refers to total exposure, with the tail of the curve extrapolated. A higher AUC(0-inf) goes with high exposure. What is called half-life is the time needed for the level to fall by half in the phase considered. High values mean slow decline, low ones rapid decline. In general, CL/F refers to clearance divided by bioavailability, as obtained after extravascular dosing. In general, Cmax refers to the maximum level reached in the sampled fluid or tissue. In general, Tmax refers to the time at which the peak concentration occurs.

In data set [1] the test system is MDR1 (P-glycoprotein). Briefly: MDCK-MDR1 permeability A→B. In kind it is in vitro ADME, Canine. The note with it: dog; MDCK cells expressing human MDR1, A→B; read-out: MDCK-MDR Permeability A→B. In a few lines: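 Permeability measured apical-to-basolateral in MDCK cells expressing human MDR1, reported as binned ranges in cm/s×10^−6. Metabolic stability determined as half-life in mouse and human hepatocytes, reported as binned ranges in minutes.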

Data set [2] is described as follows: Kinetic aqueous solubility (KSOL) in PBS, pH 7.4. In kind it is physicochemical. To be noted: aqueous buffer, kinetic from dmso stock.
For data set [3], the system named is IFNβ production in THP-1 cells. Kind of data set: IFNβ ELISA in THP-1 cells. In kind it is cell-based, human. In a few lines: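 THP-1 cells stimulated with dsDNA or cGAMP (STING activation bypassing cGAS) in the presence of compound; IFNβ secreted into medium quantified by ELISA. IC50 values reported in potency bins.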
Data set [4] deals with IFN-β production in PBMCs. Briefly: IFNβ ELISA in human primary PBMCs. In kind it is cell-based. The note with it: PBMC. In a few lines:
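Human primary PBMCs stimulated with dsDNA or cGAMP to trigger a cGAS/STING-dependent type I IFN response. Secreted IFNβ quantified by ELISA across a dose response to derive IC50 values.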
(In general: ELISA stands for enzyme-linked immunosorbent assay.)

Data set [5] is described as follows: Cytotoxicity, CellTiter Glo (ATP levels) and Presto Blue (reducing equivalents). To be noted: CellTiter Glo, Presto Blue, dose response. In kind it is cell-based. Here is the method:
The reporter gene assays were used to assess off-target activity with IRF30Luc (RIG-1) or NFKB (TLR4); CellTiter Glo (ATP levels) and Presto Blue (reducing equivalents) were used to assess cytotoxicity; all assays were performed in dose response mode. […] The inventors recently began using human PBMCs to assess cellular potency in a more physiologically relevant context.

Data set [6] can be described thus: Pharmacokinetics in C57BL/6 female mice, IV and PO. In kind it is in vivo. The note with it: plasma; for AUC: read-out: AUC0-tidc. Here is the method:
The pharmacokinetic characteristics of Compound 5 (BBL-100455) were estimated in C57BL/6 female mice following intravenous (IV) bolus and oral (PO) administration.
In short, the compound of the disclosure at 0.6 mg/mL in PBS containing 5% MSO and 25% PEG-400 was administered by IV injection (3 mg/kg). For PO (30 mg/kg), the compound of the disclosure at 3 mg/mL in PBS containing 10% MSO and 50% PEG-400 was orally administered. At the given time points (0.083 h, 0.167 h, 0.25 h, 0.50 h 1 h, 2 h, 4 h, 7 h, 16 h and 24 h), blood samples were collected using heparinized calibrated pipettes. Samples were centrifuged at 15000 rpm for 10 min. Subsequently, blood plasma was collected from the upper layer. The plasma was frozen at −80° C. for later analysis. At 2 h. 7 h and 24 h, brain samples were collected and immediately stored at […] for later analysis.
The analytical curve was constructed using ten non-zero standards with Compound 5 (BBL-100455) concentration ranging from 1 to 2500 ng/ml in the blank plasma and brain tissue. A blank sample (matrix sample processed without internal standard) was used to exclude contamination. The linear regression analysis of BBL- 100455 was performed by plotting the peak area ratio (y) against the BBL-100455 concentrations (x) in ng/ml.
The individual and average compound 5 concentration-time data for IV and PO dosed groups are presented in FIG. 4 for plasma concentration. All PK parameters were estimated using non-compartmental analyses with Phoenix/WINONLIN.

The mark [7] stands for this setting: mouse, IV 3 mg/kg, C57BL/6 female mice.
Where [8] appears, read: mouse, PO 30 mg/kg, C57BL/6 female mice.

In brackets after ≈: the same amount, converted by molar mass. Like-named read-outs stand apart in the source and are kept apart here.

For `Cc1nc(N2C[C@@H](CC(=O)Nc3ccc(-c4ccccc4)cc3)C[C@H]2C(=O)O)c2oc3ccccc3c2n1` [Compound 5, (2S,4R)-4-(2-([1,1′-biphenyl]-4-ylamino)-2-oxoethyl)-1-(2-methylbenzofuro[3,2-d]pyrimidin-4-yl)pyrrolidine-2-carboxylic acid], the Papp A→B in data set [1] lay in the range of 5 to 10 ×10⁻⁶ cm/s. The same compound displayed a kinetic solubility in data set [2] of 8 µM (≈ 4.05 µg/mL). In addition, in data set [3] (Homo sapiens, THP-1 cells), the 50% inhibitory concentration (IC50) is less than 1000 nM. In data set [3] (cellular assays vs cGAS enzymatic assay at 1 mM ATP/GTP), the “Cellular IC50 relative to biochemical IC50” value is “essentially identical”. The IC50 in data set [4] fell in the range of 1000 to 2500 nM. In data set [5], the Concentration showing cytotoxicity result was “above 25 μM”. The compound also showed a Vss in data set [6] (IV 3 mg/kg, C57BL/6 female mice) of 0.853 L/kg. The bioavailability in data set [6] (female, C57BL/6, mouse, PO 30 mg/kg vs IV 3 mg/kg, bioavailability) was determined as 29.3%. Moreover, in data set [6] (setting [7]), the AUC(0-inf) was found to be 4860 ng·h/mL, the clearance is 10.3 mL/min/kg, the half-life was 2.3 h and the AUC was found to be 4630 ng·h/mL. Moreover, in data set [6] (setting [8]), the AUC(0-inf) is 13600 ng·h/mL, the CL/F was 36.8 mL/min/kg, the Cmax was found to be 2870 ng/mL and the Tmax came out at 0.5 h. In data set [6] (setting [8]), the half-life was 2.25 h and the AUC was found to be 13600 ng·h/mL.
